Assay: xn = mol fraction of the nth substance listed

COCCOCCOCCOCCOC + CCCO
viscosity [mPa·s], 101 kPa
Conditions	298.15 K	308.15 K
x1 = 0.0071	1.913	1.492
x1 = 0.0125	1.9	1.485
x1 = 0.0309	1.872	1.475
x1 = 0.0504	1.852	1.463
x1 = 0.1024	1.841	1.467
x1 = 0.1342	1.861	1.488
x1 = 0.1847	1.908	1.528
x1 = 0.2444	1.989	1.593
x1 = 0.2916	2.062	1.645
x1 = 0.3271	2.126	1.697
x1 = 0.369	2.192	1.754
x1 = 0.4386	2.31	1.84
x1 = 0.4814	2.384	1.896
x1 = 0.5238	2.466	1.953
x1 = 0.5941	2.577	2.041
x1 = 0.6423	2.665	2.104
x1 = 0.7174	2.797	2.205
x1 = 0.7487	2.855	2.247
x1 = 0.7864	2.91	2.291
x1 = 0.8401	3.007	2.36

CCCCn1cc[n+](C)c1.F[P-](F)(F)(F)(F)F + O
298.15 K, 101 kPa
Conditions	viscosity [mPa·s]
x2 = 0.0518	198
x2 = 0.2146	92.5

Clc1ccccc1 + Cc1ccc(C)cc1
101 kPa
Conditions	viscosity [mPa·s]
293.15 K, x1 = 0.1144	0.598
293.15 K, x1 = 0.2316	0.621
293.15 K, x1 = 0.337	0.641
293.15 K, x1 = 0.4432	0.657
293.15 K, x1 = 0.5417	0.673
293.15 K, x1 = 0.6319	0.687
293.15 K, x1 = 0.7398	0.706
293.15 K, x1 = 0.8385	0.722
293.15 K, x1 = 0.9124	0.734
298.15 K, x1 = 0.1363	0.57
298.15 K, x1 = 0.2224	0.585
298.15 K, x1 = 0.3453	0.608
298.15 K, x1 = 0.4555	0.625
298.15 K, x1 = 0.5832	0.645
298.15 K, x1 = 0.6956	0.667
298.15 K, x1 = 0.7881	0.679
298.15 K, x1 = 0.9065	0.695
303.15 K, x1 = 0.1144	0.534
303.15 K, x1 = 0.2318	0.55
303.15 K, x1 = 0.3419	0.572
303.15 K, x1 = 0.4624	0.587
303.15 K, x1 = 0.5653	0.602
303.15 K, x1 = 0.6803	0.615
303.15 K, x1 = 0.7947	0.635
303.15 K, x1 = 0.9082	0.649

CCCCC(CC)CN (stereo not given) + COCCOCCOC
viscosity [mPa·s], 101.33 kPa
Conditions	x2 = 0.0967	x2 = 0.194	x2 = 0.292	x2 = 0.391	x2 = 0.491	x2 = 0.591	x2 = 0.692	x2 = 0.794	x2 = 0.897
303.2 K	0.98	0.97	0.96	0.95	0.94	0.93	0.92	0.93	0.94
313.2 K	0.86	0.85	0.84	0.82	0.81	0.8	0.79	0.8	0.81

Clc1cccc2ccccc12 + CO
viscosity [mPa·s], 101.33 kPa
Conditions	x1 = 0.0998	x1 = 0.1992	x1 = 0.302	x1 = 0.4003	x1 = 0.4961	x1 = 0.5978	x1 = 0.6961	x1 = 0.801	x1 = 0.8922
298.15 K	0.814	1.096	1.372	1.617	1.847	2.064	2.237	2.454	2.67
303.15 K	0.75	1.002	1.249	1.468	1.672	1.863	2.012	2.197	2.385
308.15 K	0.689	0.918	1.142	1.336	1.516	1.683	1.818	1.984	2.157

CC1=CCC(=C(C)C)CC1 + Fc1ccccc1
viscosity [mPa·s], 101 kPa
Conditions	x1 = 0.062	x1 = 0.1294	x1 = 0.2031	x1 = 0.2839	x1 = 0.3729	x1 = 0.4714	x1 = 0.5811	x1 = 0.704	x1 = 0.8425
303.15 K	0.563	0.61	0.661	0.715	0.771	0.824	0.87	0.912	0.951
308.15 K	0.53	0.572	0.621	0.672	0.725	0.774	0.818	0.855	0.889
313.15 K	0.498	0.536	0.582	0.631	0.681	0.727	0.767	0.8	0.831

Clc1ccccc1 + CN(C)C=O
viscosity [mPa·s], 101.33 kPa
Conditions	x2 = 0.1076	x2 = 0.2986	x2 = 0.397	x2 = 0.5024	x2 = 0.6054	x2 = 0.7013	x2 = 0.7925	x2 = 0.8973
303.15 K	0.731	0.76	0.767	–	0.773	0.774	0.771	0.754
313.15 K	–	–	0.69	0.694	0.695	0.694	0.688	–

COCCOCCOCCOCCOC + ClC(Cl)(Cl)Cl
298.15 K, 101 kPa
Conditions	viscosity [mPa·s]
x1 = 0.0127	0.966
x1 = 0.0282	1.01
x1 = 0.0629	1.122
x1 = 0.1168	1.311
x1 = 0.1932	1.562
x1 = 0.2437	1.723
x1 = 0.2943	1.888
x1 = 0.3592	2.081
x1 = 0.3669	2.102
x1 = 0.4164	2.242
x1 = 0.4414	2.319
x1 = 0.511	2.487
x1 = 0.5854	2.656
x1 = 0.6215	2.732
x1 = 0.6944	2.874
x1 = 0.7318	2.94
x1 = 0.7968	3.067
x1 = 0.8566	3.16
x2 = 0.0114	3.287

N#CCCCCC#N + CS(C)=O
303.15 K, 101.33 kPa
Conditions	viscosity [mPa·s]
x1 = 0.1031	2.027
x1 = 0.2999	2.489
x1 = 0.4015	2.76
x1 = 0.5024	3.06
x1 = 0.5947	3.343
x1 = 0.6945	3.682
x1 = 0.8441	4.243

COC(C)(C)C + Cc1ccccc1
298.15 K, 101 kPa
Conditions	viscosity [mPa·s]
x1 = 0.05	0.541
x1 = 0.1	0.528
x1 = 0.2001	0.505
x1 = 0.3002	0.479
x1 = 0.4001	0.458
x1 = 0.5001	0.438
x1 = 0.6001	0.419
x1 = 0.6998	0.398
x1 = 0.8	0.383
x1 = 0.8999	0.372
x1 = 0.9502	0.365

Clc1ccccc1 + CCCCOC(C)=O
viscosity [mPa·s], 101 kPa
Conditions	298.15 K	308.15 K
x2 = 0.0484	0.744	0.669
x2 = 0.1504	0.723	0.651
x2 = 0.2515	0.706	0.636
x2 = 0.349	0.692	0.624
x2 = 0.4447	0.682	0.614
x2 = 0.4933	0.678	0.61
x2 = 0.5503	0.674	0.605
x2 = 0.6502	0.669	0.599
x2 = 0.7514	0.667	0.595
x2 = 0.8498	0.668	0.593
x2 = 0.9417	0.671	0.593

COCCOCCOCCOCCOC + CC1COC(=O)O1
298.15 K, 101.33 kPa
Conditions	viscosity [mPa·s]
x1 = 0.0021	2.505
x1 = 0.0047	2.51
x1 = 0.0111	2.543
x1 = 0.0248	2.604
x1 = 0.0362	2.663
x1 = 0.0516	2.716
x1 = 0.0765	2.814
x1 = 0.1064	2.935
x1 = 0.1537	3.083
x1 = 0.1752	3.145
x1 = 0.2194	3.268
x1 = 0.259	3.355
x1 = 0.3006	3.428
x1 = 0.3585	3.506
x1 = 0.3967	3.56
x1 = 0.4451	3.59
x1 = 0.4956	3.602
x1 = 0.5433	3.607
x1 = 0.6081	3.609
x1 = 0.6396	3.615
x1 = 0.7173	3.588
x1 = 0.782	3.559
x1 = 0.8311	3.541
x1 = 0.896	3.498
x1 = 0.9403	3.466

Source: the CheMixHub viscosity set
